US6479510B2, “Quinuclidine-substituted aryl compounds for treatment of disease” (Pharmacia & Upjohn Company, priority 2000, dated 2002)
Where a name gives a salt, the structure may show the parent alone.

The compounds below were run against α7 nAChR (Rattus norvegicus, UniProt Q05941) (assay: [3H]-MLA competition binding assay in rat brain membranes). Settings: not given.
Text: Materials and Methods for identifying binding constants: […]

Sequence of α7 nAChR (Q05941 23-502): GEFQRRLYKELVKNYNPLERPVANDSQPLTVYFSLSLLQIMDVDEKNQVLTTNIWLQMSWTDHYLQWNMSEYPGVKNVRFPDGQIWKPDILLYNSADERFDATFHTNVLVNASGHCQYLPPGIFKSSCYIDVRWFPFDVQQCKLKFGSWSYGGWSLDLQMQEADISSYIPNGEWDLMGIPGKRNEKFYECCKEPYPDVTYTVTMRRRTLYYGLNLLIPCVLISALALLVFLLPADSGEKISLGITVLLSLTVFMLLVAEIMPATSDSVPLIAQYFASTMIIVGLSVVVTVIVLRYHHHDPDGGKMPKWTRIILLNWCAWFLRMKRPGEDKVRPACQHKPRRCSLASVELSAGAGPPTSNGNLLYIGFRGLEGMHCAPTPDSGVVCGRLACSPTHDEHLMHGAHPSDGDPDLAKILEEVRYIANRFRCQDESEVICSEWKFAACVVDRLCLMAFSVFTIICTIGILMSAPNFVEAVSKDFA

| Compound | Ki [nM] |
| --- | --- |
| O=C(N[C@H]1CN2CCC1CC2)c1ccc(Oc2ccc(O)cc2)cc1 [Example 1, N-[(3R)-1-azabicyclo[2.2.2]oct-3-yl]-4-(4-hydroxyphenoxy)benzamide] | 278 |
| CC(=O)Nc1ccc(Oc2ccc(C(=O)N[C@H]3CN4CCC3CC4)cc2)cc1 [Example 2, N-[(3R)-1-azabicyclo[2.2.2]oct-3-yl]-4-(4-acetamidophenoxy)benzamide] | 270 |
| O=C(N[C@H]1CN2CCC1CC2)c1ccc(Sc2cccc(Cl)c2)cc1 [Example 17, N-[(3R)-1-azabicyclo[2.2.2]oct-3-yl]-4-(3-chlorophenylsulfanyl)benzamide] | 170 |
| O=C(N[C@H]1CN2CCC1CC2)c1ccc(Oc2ccc(Cl)cc2)cc1 [Example 13, N-[(3R)-1-azabicyclo[2.2.2]oct-3-yl]-4-(4-chlorophenoxy)-benzamide] | 1240 |
| COc1ccc(Oc2ccc(C(=O)N[C@H]3CN4CCC3CC4)cc2)cc1 [Example 16, N-[(3R)-1-azabicyclo[2.2.2]oct-3-yl]-4-(4-methoxyphenoxy)-benzamide] | 414 |
| O=C(N[C@H]1CN2CCC1CC2)c1ccc(C(=O)c2ccccc2)cc1 [Example 7, N-[(3R)-1-azabicyclo[2.2.2]oct-3-yl]-4-benzoylbenzamide] | 1580 |
| O=C(N[C@H]1CN2CCC1CC2)c1ccc(Oc2cccc(Cl)c2)cc1 [Example 12, N-[(3R)-1-azabicyclo[2.2.2]oct-3-yl]-4-(3-chlorophenoxy)-benzamide] | 1590 |
| O=C(N[C@H]1CN2CCC1CC2)c1ccc(Oc2ccc(F)cc2)cc1 [Example 8, N-[(3R)-1-azabicyclo[2.2.2]oct-3-yl]-4-(4-fluorophenoxy)benzamide] | 910 |
| O=C(N[C@H]1CN2CCC1CC2)c1ccc(Oc2ccccc2)cc1 [Example 3, N-[(3R)-1-azabicyclo[2.2.2]oct-3-yl]-4-phenoxybenzamide] | 847 |

Same assay, conditions: read-out: Ki

| Compound | Ki [nM] |
| --- | --- |
| CC1C(NC(=O)c2ccc(Oc3ccccc3)cc2)C2CCN1CC2 (centres unmarked) [Example 23, N-(2-methyl-1-azabicyclo[2.2.2]oct-3-yl)-4-phenoxybenzamide Fumarate] | 1660 to 1980 |
| COc1cccc(Oc2ccc(C(=O)N[C@H]3CN4CCC3CC4)cc2)c1 [Example 15, N-[(3R)-1-azabicyclo[2.2.2]oct-3-yl]-4-(3-methoxyphenoxy)-benzamide] | 835 |
